# Patent publication US9617286B2, “Fungicide N-[(trisubstitutedsilyl)methyl]-carboxamide derivatives” (BAYER INTELLECTUAL PROPERTY GMBH, priority 2011, dated 2017)
# How the values were obtained:
# Pyrenophora teres [1] = test: In vivo preventive test on Pyrenophora teres (barley); details: preventive spray (DMF/alkylaryl polyglycol ether), 500 ppm of active ingredient, evaluated 7-9 days after inoculation
# Experimental: (§1) Solvent: 49 parts by weight of N,N-dimethylformamide Emulsifier: 1 part by weight of alkylaryl polyglycol ether To produce a suitable preparation of active compound, 1 part by weight of active compound is mixed with the stated amounts of solvent and emulsifier, and the concentrate is diluted with water to the desired concentration. To test for preventive activity, young plants are sprayed with the preparation of active compound at the stated rate of application. One day after this treatment, the plants are inoculated with an aqueous spore suspension of Pyrenophora teres. The plants remain for 48 hours in an incubation cabinet at 22° C. and a relative atmospheric humidity of 100%. Then the plants are placed in a greenhouse at a temperature of approximately 20° C. and a relative atmospheric humidity of approximately 80%.
# [2] = log P by HPLC on reversed-phase column (C 18), EEC Directive 79/831 Annex V.A8; type: physicochemical; details: 40° C., 0.1% aqueous formic acid and acetonitrile, linear gradient 10% to 90% acetonitrile
# In short: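 Reversed-phase C18 HPLC at 40° C, 0.1% aqueous formic acid/acetonitrile gradient from 10% to 90% acetonitrile. log P derived from retention times by linear interpolation between unbranched alkan-2-ones (3–16 carbons) of known log P.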
# Leptosphaeria nodorum = test: In vivo preventive test on Leptosphaeria nodorum (wheat); details: preventive spray, 500 ppm of active ingredient, evaluated 7-9 days after inoculation
# Experimental: as §1, with “sprayed with a preparation of” for “sprayed with the preparation of”, “suspension of Leptosphaeria nodorum. The plants” for “suspension of Pyrenophora teres. The plants”, “of approximately 22° C. and” for “of approximately 20° C. and”, “of approximately 90%.” for “of approximately 80%.”
# Botrytis cinerea [3] = test: In vivo preventive test on Botrytis cinerea (cucumber); details: preventive spray (DMF/alkylaryl polyglycol ether), 500 ppm of active ingredient, evaluated 5-6 days after inoculation
# Experimental: (§2) Solvent: 49 parts by weight of N,N-dimethylformamide Emulsifier: 1 part by weight of alkylaryl polyglycol ether To produce a suitable preparation of active compound, 1 part by weight of active compound is mixed with the stated amounts of solvent and emulsifier, and the concentrate is diluted with water to the desired concentration. To test for preventive activity, young plants are sprayed with the preparation of active compound at the stated rate of application. One day after this treatment, the plants are inoculated with an aqueous spore suspension of Botrytis cinerea. The plants remain for two days in an incubation cabinet at approximately 22° C. and a relative atmospheric humidity of 100%. Then the plants are placed in an incubation cabinet at approximately 14° C. and a relative atmospheric humidity of 96%.
# Alternaria solani = test: In vivo preventive test on Alternaria solani (tomato); details: preventive spray, 500 ppm of active ingredient, evaluated 7 days after inoculation
# Experimental: as §2, with “Alternaria solani.” for “Botrytis cinerea.”, “one day” for “two days”, “20°” for “14°”
# Puccinia recondita = test: In vivo preventive test on Puccinia recondita (brown rust on wheat); details: preventive spray, 500 ppm of active ingredient, grading 12 days after contamination
# Experimental: Wheat plants (“Scipion” variety), sown in starter cups on a 50/50 peat soil pozzolana substrate and grown at 22° C., are treated at the 1 leaf stage (10 cm height) by spraying with the active ingredient prepared as described above. Plants, used as controls, are treated with the mixture of acetone/tween/DMSO/water not containing the active material. After 24 hours, the plants are contaminated by spraying the leaves with an aqueous suspension of Puccinia recondita spores (100 000 spores per mL). The spores are collected from an infected plant and are suspended in water containing 2.5 mL/L of Tween 80 at 10%. The contaminated wheat plants are incubated for 24 hours at 20° C. and at 100% relative humidity, and then for 10 days at 20° C. and at 70-80% relative humidity. Grading (% of efficacy) is carried out 12 days after the contamination, in comparison with the control plants.
# Sphaerotheca fuliginea = test: In vivo preventive test on Sphaerotheca fuliginea (powdery mildew on cucurbits); details: gherkin plants, preventive spray, 500 ppm of active ingredient, grading 12 days after contamination
# Experimental: Gherkin plants (“Vert petit de Paris” variety), sown in starter cups on a 50/50 peat soil-pozzolana substrate and grown at 24° C., are treated at the Z11 cotyledon stage by spraying with the active ingredient prepared as described above. Plants, used as controls, are treated with the mixture of acetone/tween/DMSO/water not containing the active material. After 24 hours, the plants are contaminated by spraying the cotyledons with an aqueous suspension of Sphaerotheca fuliginea spores (100 000 spores per mL). The spores are collected from infected plants. The contaminated gherkin plants are incubated at about 20° C. and at 70-80% relative humidity. Grading (% of efficacy) is carried out 12 days after the contamination, in comparison with the control plants.
# Septoria tritici = test: In vivo preventive test on Septoria tritici (wheat); details: preventive spray, 500 ppm of active ingredient, grading 24 days after contamination
# Experimental: Wheat plants (“Scipion” variety), sown in starter cups on a 50/50 peat soil pozzolana substrate and grown at 22° C., are treated at the 1 leaf stage (10 cm height) by spraying with the active ingredient prepared as described above. Plants, used as controls, are treated with the mixture of acetone/tween/DMSO/water not containing the active material. After 24 hours, the plants are contaminated by spraying the leaves with an aqueous suspension of cryopreserved Septoria tritici spores (500 000 spores per mL). The contaminated wheat plants are incubated for 72 hours at 18° C. and at 100% relative humidity, and then for 21 days at 90% relative humidity. Grading (% of efficacy) is carried out 24 days after the contamination, in comparison with the control plants.
# Uromyces appendiculatus = test: In vivo preventive test on Uromyces appendiculatus (bean rust); details: bean plants, preventive spray, 500 ppm of active ingredient, grading 11 days after contamination
# Experimental: Bean plants (“Saxa” variety), sown in starter cups on a 50/50 peat soil pozzolana substrate and grown at 24° C., are treated at the 2 leaf stage (9 cm height) by spraying with the active ingredient prepared as described above. Plants, used as controls, are treated with the mixture of acetone/tween/DMSO/water not containing the active material. After 24 hours, the plants are contaminated by spraying the leaves with an aqueous suspension of Uromyces appendiculatus spores (150 000 spores per mL). The spores are collected from infected plants and are suspended in water containing 2.5 mL/L of Tween 80 at 10%. The contaminated bean plants are incubated for 24 hours at 20° C. and at 100% relative humidity, and then for 10 days at 20° C. and at 70-80% relative humidity. Grading (% of efficacy) is carried out 11 days after the contamination, in comparison with the control plants.
# Alternaria brassicae = test: In vivo preventive test on Alternaria brassicae (leaf spot on radish); details: preventive spray, 500 ppm of active ingredient, grading 6 days after contamination
# Experimental: Radish plants (“Pernod Clair” variety), sown in starter cups on a 50/50 peat soil pozzolana substrate and grown at 17° C., are treated at the cotyledon stage by spraying with the active ingredient prepared as described above. Plants, used as controls, are treated with the mixture of acetone/tween/DMSO/water not containing the active material. After 24 hours, the plants are contaminated by spraying the cotyledons with an aqueous suspension of Alternaria brassicae spores (50 000 spores per mL). The spores are collected from a 15-day-old culture. The contaminated radish plants are incubated at 20° C. and at 100% relative humidity. Grading (% of efficacy) is carried out 6 days after the contamination, in comparison with the control plants.
# Pyrenophora teres [4] = test: In vivo preventive test on Pyrenophora teres (barley) - 2nd test; details: 2nd test (acetone/tween/DMSO), 500 ppm of active ingredient, grading 14 days after contamination
# Experimental: Barley plants (“Plaisant” variety), sown in starter cups on a 50/50 peat soil pozzolana substrate and grown at 22° C., are treated at the 1 leaf stage (10 cm height) by spraying with the active ingredient prepared as described above. Plants, used as controls, are treated with the mixture of acetone/tween/DMSO/water not containing the active material. After 24 hours, the plants are contaminated by spraying the leaves with an aqueous suspension of Pyrenophora teres spores (12 000 spores per mL). The spores are collected from a 12-day-old culture. The contaminated barley plants are incubated for 48 hours at 20° C. and at 100% relative humidity, and then for 12 days at 20° C. at 70-80% relative humidity. Grading (% of efficacy) is carried out 14 days after the contamination, in comparison with the control plants.
# Botrytis cinerea [5] = test: In vivo preventive test on Botrytis cinerea (grey mould) - 2nd test; details: gherkin plants, 2nd test (acetone/tween/DMSO), 500 ppm of active ingredient, grading 4 to 5 days after contamination
# Experimental: Gherkin plants (“Vert petit de Paris” variety), sown in starter cups on a 50/50 peat soil pozzolana substrate and grown at 24° C., are treated at the Z11 cotyledon stage by spraying with the active ingredient prepared as described above. Plants, used as controls, are treated with the mixture of acetone/tween/DMSO/water not containing the active material. After 24 hours, the plants are contaminated by spraying the cotyledons with an aqueous suspension of cryopreserved Botrytis cinerea spores (50 000 spores per mL). The spores are suspended in a nutrient solution composed of 10 g/L of PDB, 50 g/L of D-Fructose, 2 g/L of NH4NO3 and 1 g/L of KH2PO4. The contaminated gherkin plants are incubated at 17° C. and at 90% relative humidity. Grading (% of efficacy) is carried out 4 to 5 days after the contamination, in comparison with the control plants.
smiles,measurement,setting,value
C[Si](C)(CN(C(=O)c1cccnc1C(F)F)C1CC1)c1ccc2ccccc2c1 [Example 79],Efficacy,Pyrenophora teres [1],95%
same,logP,[2],4.11
same,Efficacy,Leptosphaeria nodorum,90%
same,Efficacy,Botrytis cinerea [3],70%
same,Efficacy,Alternaria solani,89%
C[Si](C)(CN(C(=O)c1nccnc1C(F)(F)F)C1CC1)c1ccccc1Cl [Example 26],Efficacy,Pyrenophora teres [1],95%
same,Efficacy,Puccinia recondita,92%
same,Efficacy,Sphaerotheca fuliginea,93%
same,logP,[2],4.56
same,Efficacy,Leptosphaeria nodorum,80%
same,Efficacy,Botrytis cinerea [3],99%
same,Efficacy,Septoria tritici,100%
C[Si](C)(CNC(=O)c1cccnc1C(F)(F)F)c1ccccc1 [Example 2],Efficacy,Puccinia recondita,88%
same,Efficacy,Sphaerotheca fuliginea,83%
same,logP,[2],2.92
same,Efficacy,Uromyces appendiculatus,100%
same,Efficacy,Septoria tritici,100%
C[Si](C)(Cc1cccc(Cl)c1)CN(C(=O)c1nccnc1C(F)(F)F)C1CC1 [Example 105],Efficacy,Pyrenophora teres [1],70%
same,logP,[2],4.82
same,Efficacy,Botrytis cinerea [3],93%
C[Si](C)(CN(C(=O)c1nccnc1C(F)(F)F)C1CC1)c1ccsc1 [Example 86],Efficacy,Pyrenophora teres [1],90%
same,logP,[2],3.94
same,Efficacy,Botrytis cinerea [3],80%
same,Efficacy,Alternaria solani,75%
C[Si](C)(CN(C(=O)c1nccnc1C(F)(F)F)C1CC1)c1ccccc1F [Example 14],Efficacy,Pyrenophora teres [1],100%
same,Efficacy,Puccinia recondita,98%
same,Efficacy,Sphaerotheca fuliginea,98%
same,Efficacy,Alternaria brassicae,95%
same,logP,[2],4.18
same,Efficacy,Uromyces appendiculatus,84%
same,Efficacy,Septoria tritici,93%
C[Si](C)(CN(C(=O)c1cccnc1C(F)F)C1CC1)c1ccc(Cl)cc1Cl [Example 62],Efficacy,Pyrenophora teres [1],100%
same,Efficacy,Puccinia recondita,92%
same,Efficacy,Sphaerotheca fuliginea,79%
same,logP,[2],4.51
same,Efficacy,Leptosphaeria nodorum,70%
same,Efficacy,Alternaria solani,94%
same,Efficacy,Septoria tritici,100%
same,Efficacy,Pyrenophora teres [4],93%
CC1=C(C(=O)NC[Si](C)(C)c2ccccc2Cl)SCCO1 [Example 42],Efficacy,Puccinia recondita,72%
same,logP,[2],3.50
same,Efficacy,Septoria tritici,100%
same,Efficacy,Pyrenophora teres [4],93%
C[Si](C)(CN(C(=O)c1cccnc1C(F)F)C1CC1)c1cccc(Cl)c1 [Example 34],Efficacy,Pyrenophora teres [1],100%
same,logP,[2],3.87
same,Efficacy,Leptosphaeria nodorum,80%
same,Efficacy,Botrytis cinerea [3],85%
same,Efficacy,Alternaria solani,89%
C[Si](C)(CN(C(=O)c1nccnc1C(F)(F)F)C1CC1)c1ccc2ccccc2c1 [Example 77],Efficacy,Pyrenophora teres [1],100%
same,logP,[2],4.80
same,Efficacy,Leptosphaeria nodorum,95%
same,Efficacy,Botrytis cinerea [3],95%
same,Efficacy,Alternaria solani,78%
C[Si](C)(CN(C(=O)c1nccnc1C(F)(F)F)C1CC1)c1cccc(Cl)c1 [Example 32],Efficacy,Pyrenophora teres [1],95%
same,logP,[2],4.56
same,Efficacy,Leptosphaeria nodorum,90%
same,Efficacy,Botrytis cinerea [3],94%
same,Efficacy,Alternaria solani,89%
C[Si](C)(CNC(=O)c1cccnc1C(F)F)c1ccccc1Cl [Example 22],Efficacy,Puccinia recondita,100%
same,Efficacy,Sphaerotheca fuliginea,78%
same,logP,[2],3.06
same,Efficacy,Uromyces appendiculatus,96%
same,Efficacy,Botrytis cinerea [5],92%
same,Efficacy,Septoria tritici,96%
C[Si](C)(Cc1ccccc1)CN(C(=O)c1nccnc1C(F)(F)F)C1CC1 [Example 93],Efficacy,Pyrenophora teres [1],70%
same,logP,[2],4.44
same,Efficacy,Leptosphaeria nodorum,80%
same,Efficacy,Botrytis cinerea [3],100%
same,Efficacy,Alternaria solani,75%
C[Si](C)(Cc1ccccc1)CN(C(=O)c1cccnc1C(F)F)C1CC1 [Example 92],Efficacy,Pyrenophora teres [1],90%
same,logP,[2],3.80
same,Efficacy,Leptosphaeria nodorum,80%
same,Efficacy,Botrytis cinerea [3],98%
same,Efficacy,Alternaria solani,78%
